Results taken from PubChem BioAssay AID330 (DTP/NCI, 2004).
Values joined by “and” are separate entries in the source; they are usually repeats but may differ in a detail not shown here. Equal values may be shown once. Toxic doses and inconclusive results are not listed. The calls were made as follows: active = survival T/C of 150% or more; inactive = T/C below 125% in these data.

Test system: P388 leukemia ip, CD2F1 mice, survival T/C
Experiment: NCI In Vivo Anticancer Drug Screen. Data for tumor model P388 Leukemia (intraperitoneal) in CD2F1 (CDF1) mice
Conditions: endpoint: median survival time, higher = longer survival
How it was run: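 Mice carrying the transplanted tumor received test compound or vehicle. Survival was recorded in each group, and the value is the treated-group measurement divided by that of the vehicle-treated control group.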

[1] = dose: 12.5 mg/kg/injection, schedule: Q01DX009 (ip), vehicle: saline with Tween-80
[2] = dose: 25.0 mg/kg/injection, schedule: Q01DX009 (ip), vehicle: saline with Tween-80
[3] = dose: 50.0 mg/kg/injection, schedule: Q01DX009 (ip), vehicle: saline with Tween-80
[4] = dose: 100.0 mg/kg/injection, schedule: Q01DX009 (ip), vehicle: saline with Tween-80
[5] = dose: 200.0 mg/kg/injection, schedule: Q01DX005 (ip), vehicle: Klucel (hydroxypropylcellulose) (HPC)
[6] = dose: 50.0 mg/kg/injection, schedule: Q01DX005 (ip), vehicle: saline with Tween-80
[7] = dose: 100.0 mg/kg/injection, schedule: Q01DX005 (ip), vehicle: saline with Tween-80
[8] = dose: 60.0 mg/kg/injection, schedule: Q01DX005 (ip), vehicle: saline with Tween-80
[9] = dose: 120.0 mg/kg/injection, schedule: Q01DX005 (ip), vehicle: saline with Tween-80
[10] = dose: 240.0 mg/kg/injection, schedule: Q01DX005 (ip), vehicle: saline with Tween-80
[11] = dose: 60.0 mg/kg/injection, schedule: Q01DX005 (ip), vehicle: saline
[12] = dose: 120.0 mg/kg/injection, schedule: Q01DX005 (ip), vehicle: saline
[13] = dose: 240.0 mg/kg/injection, schedule: Q01DX005 (ip), vehicle: saline
[14] = dose: 50.0 mg/kg/injection, schedule: Q01DX005 (ip), vehicle: Klucel (hydroxypropylcellulose) (HPC)
[15] = dose: 100.0 mg/kg/injection, schedule: Q01DX005 (ip), vehicle: Klucel (hydroxypropylcellulose) (HPC)
[16] = dose: 200.0 mg/kg/injection, schedule: Q01DX005 (ip), vehicle: saline with Tween-80
[17] = dose: 400.0 mg/kg/injection, schedule: Q04DX002 (ip), vehicle: saline with Tween-80
[18] = dose: 200.0 mg/kg/injection, schedule: Q01DX009 (ip), vehicle: saline with Tween-80

Measured: T/C

OCC1(CO)C(O)C2CCN1CC2 (stereo not drawn)
inactive: dose: 100.0 mg/kg/injection, schedule: Q04DX003 (ip), vehicle: Klucel (hydroxypropylcellulose) (HPC) 108 % of control | dose: 200.0 mg/kg/injection, schedule: Q04DX003 (ip), vehicle: Klucel (hydroxypropylcellulose) (HPC) 110 % of control | dose: 400.0 mg/kg/injection, schedule: Q04DX003 (ip), vehicle: Klucel (hydroxypropylcellulose) (HPC) 108 % of control

COc1cc2cc3c4ccc(OC)c(OC)c4cc[n+]3c(C)c2cc1OC (tested in a mixture with another compound)
active: [1] 150 % of control | [2] 164 % of control | [3] 174 % of control | [4] 209 % of control

C[S+]1CCC(C(=O)[O-])N1 (stereo not drawn)
inactive: dose: 50.0 mg/kg/injection, schedule: Q01DX005 (ip), vehicle: saline 101 % of control | dose: 100.0 mg/kg/injection, schedule: Q01DX005 (ip), vehicle: saline 98 % of control | dose: 200.0 mg/kg/injection, schedule: Q01DX005 (ip), vehicle: saline 98 % of control

Cc1cn(CCCCCCCCCCCCOc2c3occc3cc3ccc(=O)oc23)c(=O)[nH]c1=O
inactive: dose: 50.0 mg/kg/injection, schedule: Q04DX002 (ip), vehicle: Klucel (hydroxypropylcellulose) (HPC) 96 % of control | dose: 100.0 mg/kg/injection, schedule: Q04DX002 (ip), vehicle: Klucel (hydroxypropylcellulose) (HPC) 98 % of control | [5] 92 % of control | dose: 200.0 mg/kg/injection, schedule: Q04DX002 (ip), vehicle: Klucel (hydroxypropylcellulose) (HPC) 95 % of control

C/C(=N\NC(=S)N1CCC(C)CC1)c1cccc2cccnc12
inactive: [6] 106 % of control | [7] 104 % of control

COC1=C(OC)C(=O)C2=C(OCO2)C1=O
inactive: [8] 104 % of control | [9] 100 % of control | [10] 107 % of control

CCCNC(=O)OCCN(CCOC(=O)NCCC)CCc1cccc(OC)c1OC
inactive: [11] 101 % of control | [12] 105 % of control | [13] 100 % of control

CCOC(OCC)(c1ccccc1)N(C)C
inactive: [8] 92 % of control | [9] 100 % of control | [10] 104 % of control

O=C(CP(=O)(O)O)OC1CCCCC1
inactive: dose: 100.0 mg/kg/injection, schedule: Q01DX001 (ip), vehicle: saline 101 % of control | dose: 200.0 mg/kg/injection, schedule: Q01DX001 (ip), vehicle: saline 101 % of control | dose: 400.0 mg/kg/injection, schedule: Q01DX001 (ip), vehicle: saline 100 % of control

O=C(NNCNNC(=O)c1ccncc1)c1ccncc1
inactive: [14] 100 % of control | [15] 100 % of control | [5] 96 % of control

c1ccc2c(c1)oc1c3c(ccc12)NCCC3
inactive: [6] 104 % of control | [7] 99 % of control | [16] 104 % of control

CCOC(=O)C1C(=O)N(C)C(=O)N1c1ccc(C)cc1 (stereo not drawn)
inactive: [8] 98 % of control | [9] 87 % of control

[Cu+2].[O-]/C(=N\N=C/c1ccco1)c1ccccc1O.[O-]/C(=N\N=C/c1ccco1)c1ccccc1O.[OH3+].[OH3+]
inactive: [17] 93 % of control

CN1C(=O)C(CC(=O)O)NC1=S (stereo not drawn)
inactive: [11] 101 % of control | [12] 103 % of control | [13] 104 % of control

O=C1OCCCOC(=O)c2cc(ccc2O)OCC#CC#CCOc2ccc(O)c1c2
inactive: [8] 92 % of control | [9] 97 % of control | [10] 97 % of control

CN(NC(=O)C(=O)NCc1ccco1)C(=O)NC1CCCCC1
inactive: [14] 103 % of control | [15] 100 % of control | [5] 96 % of control

CCOC(=O)C1CC1C(c1cccnc1C)S(=O)(=O)c1ccccc1 (stereo not drawn)
inactive: dose: 100.0 mg/kg/injection, schedule: Q04DX002 (ip), vehicle: saline with Tween-80 100 % of control | dose: 200.0 mg/kg/injection, schedule: Q04DX002 (ip), vehicle: saline with Tween-80 99 % of control | [17] 97 % of control

Cc1ccccc1-n1c(COc2c(C)cccc2C)n[nH]c1=S
inactive: [14] 93 % of control | [15] 97 % of control | [5] 99 % of control

COC(=O)[C@H]1O[C@H]1c1ccncc1
inactive: [14] 100 % of control and 104 % of control | [15] 103 % of control and 92 % of control | [5] 103 % of control and 94 % of control | dose: 400.0 mg/kg/injection, schedule: Q01DX005 (ip), vehicle: Klucel (hydroxypropylcellulose) (HPC) 101 % of control and 92 % of control

CC(C)=CC(=O)Sc1ccccc1
inactive: dose: 12.5 mg/kg/injection, schedule: Q01DX005 (ip), vehicle: saline with Tween-80 101 % of control | dose: 25.0 mg/kg/injection, schedule: Q01DX005 (ip), vehicle: saline with Tween-80 94 % of control | [6] 102 % of control and 104 % of control

[O-][n+]1nn(CC(O)CCl)c2ccccc21 (stereo not drawn)
inactive: [6] 102 % of control | [7] 102 % of control | dose: 100.0 mg/kg/injection, schedule: Q04DX003 (ip), vehicle: saline with Tween-80 103 % of control | [16] 100 % of control | dose: 200.0 mg/kg/injection, schedule: Q04DX003 (ip), vehicle: saline with Tween-80 98 % of control | dose: 400.0 mg/kg/injection, schedule: Q04DX003 (ip), vehicle: saline with Tween-80 93 % of control

CCOC(=O)c1ccc(S(C)(=O)=O)cc1
inactive: [2] 104 % of control | [3] 95 % of control | [4] 100 % of control | [18] 100 % of control

CCCCCNC(=O)C(O)C(O)C(=O)NCCCCC (stereo not drawn)
inactive: [6] 104 % of control | [7] 101 % of control | [16] 90 % of control

CN(C)CCOc1ccc2c(c1)C(=O)/C(=C\c1ncc([N+](=O)[O-])n1C)C2
inactive: [1] 113 % of control | [2] 123 % of control and 94 % of control | [3] 121 % of control | [4] 123 % of control

O=C(CCBr)NCCNC(=O)CCBr
inactive: dose: 43.75 mg/kg/injection, schedule: Q01DX009 (ip), vehicle: saline 105 % of control | dose: 87.5 mg/kg/injection, schedule: Q01DX009 (ip), vehicle: saline 103 % of control | dose: 175.0 mg/kg/injection, schedule: Q01DX009 (ip), vehicle: saline 108 % of control

CCOC(=O)c1ccc(N2C(=O)C=CC2=O)cc1
inactive: dose: 3.12 mg/kg/injection, schedule: Q01DX009 (ip), vehicle: saline 98 % of control | dose: 6.25 mg/kg/injection, schedule: Q01DX009 (ip), vehicle: saline 98 % of control | dose: 12.5 mg/kg/injection, schedule: Q01DX009 (ip), vehicle: saline 96 % of control

Cc1ccc(S(=O)(=O)N2c3ccccc3CCN2/C=C/c2ccccc2)cc1
inactive: [14] 100 % of control | [15] 93 % of control | [5] 96 % of control

Cc1ccc(CN(S(=O)(=O)c2ccc(C)cc2)S(=O)(=O)c2ccc(C)cc2)cc1
inactive: [4] 88 % of control | [18] 113 % of control

COc1cccc2c(Nc3ccc4c(c3)OCO4)c(C(=O)O)cnc12
inactive: dose: 60.0 mg/kg/injection, schedule: Q01DX005 (ip), vehicle: Klucel + Tween-80 94 % of control | dose: 120.0 mg/kg/injection, schedule: Q01DX005 (ip), vehicle: Klucel + Tween-80 103 % of control

CC(C)CC(O)C(CC(=O)Nc1ccccc1)S(=O)(=O)c1ccccc1 (stereo not drawn)
inactive: [6] 100 % of control | [7] 92 % of control | [16] 86 % of control

COc1ccc(/C=C2\NC(c3ccccc3)OC2=O)cc1OC (stereo not drawn)
inactive: dose: 50.0 mg/kg/injection, schedule: Q01DX009 (ip), vehicle: Klucel (hydroxypropylcellulose) (HPC) 98 % of control | dose: 100.0 mg/kg/injection, schedule: Q01DX009 (ip), vehicle: Klucel (hydroxypropylcellulose) (HPC) 89 % of control | dose: 200.0 mg/kg/injection, schedule: Q01DX009 (ip), vehicle: Klucel (hydroxypropylcellulose) (HPC) 100 % of control

Cc1ccc(S(=O)(=O)NC(=O)Nc2nccs2)cc1
inactive: dose: 12.5 mg/kg/injection, schedule: Q01DX009 (ip), vehicle: distilled water + Tween-80 99 % of control | dose: 25.0 mg/kg/injection, schedule: Q01DX009 (ip), vehicle: distilled water + Tween-80 92 % of control | dose: 50.0 mg/kg/injection, schedule: Q01DX009 (ip), vehicle: distilled water + Tween-80 97 % of control | dose: 100.0 mg/kg/injection, schedule: Q01DX009 (ip), vehicle: distilled water + Tween-80 106 % of control | dose: 200.0 mg/kg/injection, schedule: Q01DX009 (ip), vehicle: distilled water + Tween-80 99 % of control

Cc1ccc(S(=O)(=O)OCCC(C)OS(=O)(=O)c2ccc(C)cc2)cc1 (stereo not drawn)
inactive: [8] 100 % of control | [9] 100 % of control | [10] 101 % of control
